Laboratory results as given in BindingDB's records for doi:10.1124/jpet.102.047092 (Case Western Reserve University, 2003).

Legend:
[1] = target: T1, Alpha-2C adrenergic receptor (Homo sapiens, UniProt P18825)
T1 sequence (P18825 whole entry): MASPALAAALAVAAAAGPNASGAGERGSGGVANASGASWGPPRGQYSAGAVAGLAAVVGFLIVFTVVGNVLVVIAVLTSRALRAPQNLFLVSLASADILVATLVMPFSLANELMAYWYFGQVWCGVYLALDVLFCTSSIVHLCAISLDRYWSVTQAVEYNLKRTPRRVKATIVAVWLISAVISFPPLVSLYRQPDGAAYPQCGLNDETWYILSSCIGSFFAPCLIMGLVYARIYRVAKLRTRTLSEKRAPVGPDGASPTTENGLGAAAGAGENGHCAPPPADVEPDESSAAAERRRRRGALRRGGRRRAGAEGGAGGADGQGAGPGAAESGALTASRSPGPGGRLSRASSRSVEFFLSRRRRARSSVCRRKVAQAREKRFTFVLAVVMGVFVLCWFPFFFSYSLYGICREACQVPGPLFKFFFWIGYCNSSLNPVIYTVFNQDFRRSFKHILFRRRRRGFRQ

[2] = target: 5-hydroxytryptamine receptor 5A (Homo sapiens, UniProt P47898)
D(3) dopamine receptor = D(3) dopamine receptor (Homo sapiens, UniProt P35462)
Vasopressin V1b receptor = target: T2, Vasopressin V1b receptor (Homo sapiens, UniProt P47901)
T2 sequence (P47901 whole entry): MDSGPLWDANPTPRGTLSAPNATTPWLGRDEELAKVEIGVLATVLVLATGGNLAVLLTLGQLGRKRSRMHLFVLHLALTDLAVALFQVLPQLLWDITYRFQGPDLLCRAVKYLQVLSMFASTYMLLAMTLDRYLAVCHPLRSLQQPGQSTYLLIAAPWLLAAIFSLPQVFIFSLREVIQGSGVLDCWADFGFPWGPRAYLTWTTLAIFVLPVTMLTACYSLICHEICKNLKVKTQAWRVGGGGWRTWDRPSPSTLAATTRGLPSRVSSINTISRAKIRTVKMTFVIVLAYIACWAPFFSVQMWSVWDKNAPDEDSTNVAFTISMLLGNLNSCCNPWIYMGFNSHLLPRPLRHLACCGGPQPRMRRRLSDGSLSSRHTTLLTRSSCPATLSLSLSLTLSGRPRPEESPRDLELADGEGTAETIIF

[3] = target: T3, Muscarinic acetylcholine receptor M1 (Homo sapiens, UniProt P11229)
T3 sequence (P11229 whole entry): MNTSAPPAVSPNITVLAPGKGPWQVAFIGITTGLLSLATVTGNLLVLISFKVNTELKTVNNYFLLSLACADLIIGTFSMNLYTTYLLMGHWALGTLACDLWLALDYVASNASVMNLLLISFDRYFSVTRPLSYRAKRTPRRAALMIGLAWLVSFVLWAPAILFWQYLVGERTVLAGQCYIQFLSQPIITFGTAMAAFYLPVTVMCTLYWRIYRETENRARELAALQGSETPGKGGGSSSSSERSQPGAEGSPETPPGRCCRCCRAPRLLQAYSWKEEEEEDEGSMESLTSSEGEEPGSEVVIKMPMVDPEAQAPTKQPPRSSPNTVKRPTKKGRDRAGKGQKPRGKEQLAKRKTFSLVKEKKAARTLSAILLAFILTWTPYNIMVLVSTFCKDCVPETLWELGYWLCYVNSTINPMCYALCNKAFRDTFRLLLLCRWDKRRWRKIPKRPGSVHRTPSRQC

[4] = target: T4, Muscarinic acetylcholine receptor M4 (Homo sapiens, UniProt P08173)
T4 sequence (P08173 whole entry): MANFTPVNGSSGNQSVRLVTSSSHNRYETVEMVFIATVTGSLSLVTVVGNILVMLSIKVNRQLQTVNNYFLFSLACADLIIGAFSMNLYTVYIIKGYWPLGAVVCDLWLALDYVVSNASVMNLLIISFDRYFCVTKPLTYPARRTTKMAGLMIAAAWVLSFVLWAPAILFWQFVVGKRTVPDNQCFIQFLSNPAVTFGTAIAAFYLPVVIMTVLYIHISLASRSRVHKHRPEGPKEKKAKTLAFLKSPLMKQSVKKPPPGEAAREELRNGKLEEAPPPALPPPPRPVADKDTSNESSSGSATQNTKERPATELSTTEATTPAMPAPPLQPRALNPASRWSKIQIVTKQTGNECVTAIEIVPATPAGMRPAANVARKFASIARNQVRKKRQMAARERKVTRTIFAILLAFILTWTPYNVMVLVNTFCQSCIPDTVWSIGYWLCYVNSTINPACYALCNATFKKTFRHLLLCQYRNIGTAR

[5] = target: Neuronal acetylcholine receptor subunit alpha-4 (Homo sapiens, UniProt P43681)
Cannabinoid receptor 1 = Cannabinoid receptor 1 (Rattus norvegicus, UniProt P20272)
[6] = target: Voltage-dependent L-type calcium channel subunit alpha-1C (Rattus norvegicus, UniProt P22002)
Histamine H1 receptor = Histamine H1 receptor (Homo sapiens, UniProt P35367)
[7] = target: Neuronal acetylcholine receptor subunit alpha-2 (Homo sapiens, UniProt Q15822)
[8] = target: Neuronal acetylcholine receptor subunit alpha-4 (Rattus norvegicus, UniProt P09483)

Measured: Ki

Sequence of Voltage-dependent L-type calcium channel subunit alpha-1C (P22002 whole entry): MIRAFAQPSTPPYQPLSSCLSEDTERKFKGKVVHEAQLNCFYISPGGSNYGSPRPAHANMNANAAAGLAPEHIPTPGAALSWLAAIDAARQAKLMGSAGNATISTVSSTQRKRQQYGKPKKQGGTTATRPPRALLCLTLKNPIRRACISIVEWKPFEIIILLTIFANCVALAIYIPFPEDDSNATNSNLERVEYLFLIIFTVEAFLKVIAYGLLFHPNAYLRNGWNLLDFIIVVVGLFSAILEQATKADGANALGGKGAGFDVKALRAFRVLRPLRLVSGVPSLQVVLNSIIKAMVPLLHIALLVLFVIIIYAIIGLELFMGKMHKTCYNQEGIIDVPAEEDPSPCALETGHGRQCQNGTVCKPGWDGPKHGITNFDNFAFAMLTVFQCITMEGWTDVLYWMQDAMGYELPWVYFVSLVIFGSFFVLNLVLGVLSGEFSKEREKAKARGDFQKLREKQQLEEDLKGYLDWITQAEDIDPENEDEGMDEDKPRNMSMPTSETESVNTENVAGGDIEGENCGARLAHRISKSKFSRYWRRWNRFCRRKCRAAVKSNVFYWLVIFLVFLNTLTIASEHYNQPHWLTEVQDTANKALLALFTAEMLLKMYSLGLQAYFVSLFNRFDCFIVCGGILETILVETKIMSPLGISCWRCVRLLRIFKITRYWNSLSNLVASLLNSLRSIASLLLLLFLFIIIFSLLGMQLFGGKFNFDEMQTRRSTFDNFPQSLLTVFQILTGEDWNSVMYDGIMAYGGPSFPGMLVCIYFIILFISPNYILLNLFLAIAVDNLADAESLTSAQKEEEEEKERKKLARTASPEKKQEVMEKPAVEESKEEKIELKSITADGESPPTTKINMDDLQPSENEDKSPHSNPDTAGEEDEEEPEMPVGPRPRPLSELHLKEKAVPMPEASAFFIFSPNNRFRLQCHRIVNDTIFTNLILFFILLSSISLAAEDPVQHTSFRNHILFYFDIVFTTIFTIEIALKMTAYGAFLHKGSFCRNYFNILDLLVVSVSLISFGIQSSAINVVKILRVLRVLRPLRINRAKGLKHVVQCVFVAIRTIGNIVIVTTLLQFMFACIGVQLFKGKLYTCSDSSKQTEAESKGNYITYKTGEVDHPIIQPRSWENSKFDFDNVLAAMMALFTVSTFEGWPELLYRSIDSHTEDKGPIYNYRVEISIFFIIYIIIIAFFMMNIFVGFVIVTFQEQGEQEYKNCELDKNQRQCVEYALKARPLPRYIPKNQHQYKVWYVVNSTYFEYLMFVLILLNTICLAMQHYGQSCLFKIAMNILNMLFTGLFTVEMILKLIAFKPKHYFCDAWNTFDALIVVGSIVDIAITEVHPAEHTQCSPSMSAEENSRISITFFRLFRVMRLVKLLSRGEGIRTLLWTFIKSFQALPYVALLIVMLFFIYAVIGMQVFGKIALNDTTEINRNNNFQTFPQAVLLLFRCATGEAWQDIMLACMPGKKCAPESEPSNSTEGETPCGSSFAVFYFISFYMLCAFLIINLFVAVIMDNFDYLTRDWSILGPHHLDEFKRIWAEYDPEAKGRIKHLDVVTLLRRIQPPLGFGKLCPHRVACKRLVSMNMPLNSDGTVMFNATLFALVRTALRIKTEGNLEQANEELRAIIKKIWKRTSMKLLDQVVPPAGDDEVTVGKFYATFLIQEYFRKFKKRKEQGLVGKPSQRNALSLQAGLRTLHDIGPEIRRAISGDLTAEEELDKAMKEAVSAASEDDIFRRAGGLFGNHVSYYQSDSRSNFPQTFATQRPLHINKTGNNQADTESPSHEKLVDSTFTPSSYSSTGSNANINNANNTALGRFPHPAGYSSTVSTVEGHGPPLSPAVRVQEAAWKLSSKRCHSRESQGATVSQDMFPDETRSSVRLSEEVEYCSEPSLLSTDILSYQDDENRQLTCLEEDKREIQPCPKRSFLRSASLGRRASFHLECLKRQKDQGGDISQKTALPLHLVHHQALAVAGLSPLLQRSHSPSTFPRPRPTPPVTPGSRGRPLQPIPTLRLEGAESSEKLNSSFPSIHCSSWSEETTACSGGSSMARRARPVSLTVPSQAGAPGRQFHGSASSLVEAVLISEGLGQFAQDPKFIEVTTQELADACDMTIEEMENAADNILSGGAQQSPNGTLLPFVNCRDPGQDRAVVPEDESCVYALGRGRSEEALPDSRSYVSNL
Sequence of Neuronal acetylcholine receptor subunit alpha-4 (Rattus norvegicus, UniProt P09483) (P09483 whole entry): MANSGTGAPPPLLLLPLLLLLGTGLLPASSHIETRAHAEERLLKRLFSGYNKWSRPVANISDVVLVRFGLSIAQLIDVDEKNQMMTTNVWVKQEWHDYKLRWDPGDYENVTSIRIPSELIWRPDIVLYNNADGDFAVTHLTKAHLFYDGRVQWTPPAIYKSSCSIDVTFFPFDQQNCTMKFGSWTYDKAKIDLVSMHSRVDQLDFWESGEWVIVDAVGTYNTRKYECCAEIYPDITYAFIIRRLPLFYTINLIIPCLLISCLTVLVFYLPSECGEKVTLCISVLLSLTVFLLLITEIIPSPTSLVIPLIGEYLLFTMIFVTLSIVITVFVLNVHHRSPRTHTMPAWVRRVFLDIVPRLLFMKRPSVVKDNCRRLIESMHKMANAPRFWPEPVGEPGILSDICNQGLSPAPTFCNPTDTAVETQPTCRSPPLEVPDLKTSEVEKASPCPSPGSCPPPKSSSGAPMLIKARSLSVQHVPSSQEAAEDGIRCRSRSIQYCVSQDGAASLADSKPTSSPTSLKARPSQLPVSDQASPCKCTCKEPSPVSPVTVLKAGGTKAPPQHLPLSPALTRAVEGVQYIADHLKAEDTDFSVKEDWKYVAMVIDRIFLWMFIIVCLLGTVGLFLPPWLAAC
Sequence of D(3) dopamine receptor (P35462 as listed by the source): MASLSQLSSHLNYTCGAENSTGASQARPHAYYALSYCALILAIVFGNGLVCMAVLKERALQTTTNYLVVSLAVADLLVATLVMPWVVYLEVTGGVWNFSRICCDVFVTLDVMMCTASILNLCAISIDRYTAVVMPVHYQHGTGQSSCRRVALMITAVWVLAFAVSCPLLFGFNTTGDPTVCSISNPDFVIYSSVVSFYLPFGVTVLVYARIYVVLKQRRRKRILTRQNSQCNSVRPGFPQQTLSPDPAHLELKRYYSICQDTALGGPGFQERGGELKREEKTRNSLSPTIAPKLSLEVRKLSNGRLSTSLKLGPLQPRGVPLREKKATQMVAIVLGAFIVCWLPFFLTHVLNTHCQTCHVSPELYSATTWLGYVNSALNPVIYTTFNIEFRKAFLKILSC
Sequence of 5-hydroxytryptamine receptor 5A (P47898 whole entry): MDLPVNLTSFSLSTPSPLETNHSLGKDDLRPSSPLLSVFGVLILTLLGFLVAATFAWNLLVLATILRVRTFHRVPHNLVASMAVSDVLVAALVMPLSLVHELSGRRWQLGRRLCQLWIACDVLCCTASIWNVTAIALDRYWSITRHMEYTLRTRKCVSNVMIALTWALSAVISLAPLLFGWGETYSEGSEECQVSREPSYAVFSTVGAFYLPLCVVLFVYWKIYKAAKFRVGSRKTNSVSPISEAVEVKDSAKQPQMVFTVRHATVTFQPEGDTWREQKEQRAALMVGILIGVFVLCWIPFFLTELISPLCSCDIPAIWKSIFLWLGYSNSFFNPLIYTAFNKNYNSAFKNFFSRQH
Sequence of Histamine H1 receptor (P35367 whole entry): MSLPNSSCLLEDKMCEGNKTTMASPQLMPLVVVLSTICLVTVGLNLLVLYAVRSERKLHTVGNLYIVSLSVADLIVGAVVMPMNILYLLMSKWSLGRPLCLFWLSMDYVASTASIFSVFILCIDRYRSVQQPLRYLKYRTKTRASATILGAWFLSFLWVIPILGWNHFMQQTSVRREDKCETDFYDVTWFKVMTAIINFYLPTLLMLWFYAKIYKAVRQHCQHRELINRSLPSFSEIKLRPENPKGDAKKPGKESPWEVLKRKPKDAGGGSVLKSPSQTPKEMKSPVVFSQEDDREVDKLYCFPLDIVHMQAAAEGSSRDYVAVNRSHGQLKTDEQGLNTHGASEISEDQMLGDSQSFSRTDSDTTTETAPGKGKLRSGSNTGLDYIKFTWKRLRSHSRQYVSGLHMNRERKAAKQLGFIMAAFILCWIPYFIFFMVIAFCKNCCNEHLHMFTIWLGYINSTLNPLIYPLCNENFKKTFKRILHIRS
Sequence of Neuronal acetylcholine receptor subunit alpha-2 (Q15822 whole entry): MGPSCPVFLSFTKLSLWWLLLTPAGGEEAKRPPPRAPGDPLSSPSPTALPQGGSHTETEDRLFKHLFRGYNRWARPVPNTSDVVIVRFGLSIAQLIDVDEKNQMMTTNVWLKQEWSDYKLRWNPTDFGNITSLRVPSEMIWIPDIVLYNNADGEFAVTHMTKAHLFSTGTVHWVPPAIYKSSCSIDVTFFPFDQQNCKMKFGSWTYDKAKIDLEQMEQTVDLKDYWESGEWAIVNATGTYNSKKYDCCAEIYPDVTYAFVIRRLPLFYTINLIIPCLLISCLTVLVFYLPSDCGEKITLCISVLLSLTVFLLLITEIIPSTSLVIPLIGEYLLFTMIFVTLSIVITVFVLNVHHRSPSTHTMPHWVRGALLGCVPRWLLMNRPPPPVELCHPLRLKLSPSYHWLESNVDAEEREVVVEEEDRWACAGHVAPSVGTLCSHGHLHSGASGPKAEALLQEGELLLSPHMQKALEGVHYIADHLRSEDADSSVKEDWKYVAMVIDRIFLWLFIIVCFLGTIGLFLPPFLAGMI
Sequence of Cannabinoid receptor 1 (P20272 whole entry): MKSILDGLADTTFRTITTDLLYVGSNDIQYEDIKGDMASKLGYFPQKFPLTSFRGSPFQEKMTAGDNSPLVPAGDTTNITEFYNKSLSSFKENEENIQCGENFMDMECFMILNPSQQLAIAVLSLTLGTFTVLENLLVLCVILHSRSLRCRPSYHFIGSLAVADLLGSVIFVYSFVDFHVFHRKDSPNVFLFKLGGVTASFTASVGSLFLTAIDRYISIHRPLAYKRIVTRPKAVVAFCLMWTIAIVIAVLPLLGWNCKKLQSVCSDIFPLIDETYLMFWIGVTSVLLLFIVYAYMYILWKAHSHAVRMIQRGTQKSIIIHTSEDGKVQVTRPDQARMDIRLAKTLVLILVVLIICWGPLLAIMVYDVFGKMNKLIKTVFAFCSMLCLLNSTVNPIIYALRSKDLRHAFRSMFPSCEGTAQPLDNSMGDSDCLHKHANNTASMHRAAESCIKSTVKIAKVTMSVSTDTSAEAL

N[C@@H](CCS(=O)(=O)O)C(=O)O (racemic)
> 10 µM: [1] | [2] | D(3) dopamine receptor | Vasopressin V1b receptor | [3] | [4]

N[C@@H](CCS)C(=O)O (racemic) [CAS_778]
> 10 µM: all assays above

NC(CS(=O)O)C(=O)O (centres undefined) [CAS_109]
> 10 µM: all assays above

NC(CSSCC(N)C(=O)O)C(=O)O (centres undefined) [CAS_595]
> 10 µM: all assays above

N[C@@H](CS)C(=O)O [CAS_5862]
> 10 µM: all assays above

CSCC[C@@H](N)C(=O)O [CAS_6137]
> 10 µM: all assays above

N[C@H](CCS(=O)(=O)O)C(=O)O [D-homocysteic acid]
> 10 µM: all assays above

N[C@H](CCS(=O)O)C(=O)O [D-homocysteine sulfinic acid]
> 10 µM: all assays above

N[C@@H]1CCSC1=O [D-homocysteine thiolactone]
not listed: D(3) dopamine receptor | Vasopressin V1b receptor
> 10 µM: all other assays above

N[C@H](CS(=O)(=O)O)C(=O)O [L-cysteic acid]
> 10 µM: all assays above

N[C@@H](CCS(=O)O)C(=O)O [L-homocysteine sulfinic acid]
> 10 µM: all assays above

N[C@H]1CCSC1=O [NSC_134505]
not listed: D(3) dopamine receptor | Vasopressin V1b receptor
> 10 µM: all other assays above
